Measured values as given in ChEMBL document CHEMBL3137667, “[Drug-induced liver injury; fourteenth updated edition of the bibliographic database of liver injuries and related drugs]” (Gastroenterol Clin Biol, 2004).

Columns and labels:
[1] = human
[2] = human, serum
[3] = Presence of at least one case with successful reintroduction. [column 'REINT' in source]; conditions: human
[4] = human; remark: listed apart in the source
[5] = Highest frequency of moderate liver toxicity observed during clinical trials, expressed as a percentage. [column '% BIOL' in source]; conditions: human
[6] = human, serum, 4383 h
[7] = human; remark: listed apart in the source
[8] = human; remark: listed apart in the source
[9] = human; remark: listed apart in the source
[10] = Highest frequency of acute liver toxicity observed during clinical trials, expressed as a percentage. [column '% AIGUE' in source]; conditions: human
[11] = human; remark: listed apart in the source
[12] = human, serum; remark: listed apart in the source
[13] = human; remark: listed apart in the source
[14] = human; remark: listed apart in the source
[15] = Times to onset, minimal and maximal, observed in the indexed observations. [column 'DELAI' in source]; conditions: human
[16] = human; remark: listed apart in the source
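Wherever Hepatotoxicity (association with vascular disease) is given: count of indexed literature references reporting vascular liver injury in humans, e.g. peliosis hepatitis, hepatic veno-occlusive disease or Budd-Chiari syndrome.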
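Wherever Hepatotoxicity (benign tumour) is given: value is a count of indexed literature references citing a benign tumour confirmed by histopathology.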
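Wherever Hepatotoxicity (choleostasis) is given: human cholestatic liver injury, shown by histopathology or by peak ALT or AST elevation over alkaline phosphatase ratio below 2, value counts indexed literature reports.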
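Wherever Hepatotoxicity (chronic liver disease) is given: chronic liver injury confirmed by histopathology or persistently raised serum aminotransferase activity beyond 6 months, value given as the count of indexed literature references.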
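Wherever Hepatotoxicity (cirrhosis) is given: value is a count of indexed literature references reporting cirrhosis confirmed by histopathology.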
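Wherever Hepatotoxicity (cytolytic) is given: human cytolytic liver injury, shown by histopathology or by a ratio above 5 of peak ALT or AST elevation to alkaline phosphatase elevation, value counts indexed references.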
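Wherever Hepatotoxicity (granulomatous hepatitis) is given: value is a count of indexed literature references reporting granulomatous liver disease confirmed by histopathology.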
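Wherever Hepatotoxicity (malignant tumour) is given: malignant tumour confirmed by histopathology, value gives the count of indexed literature references reporting it.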
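Wherever Hepatotoxicity (severe hepatitis) is given: human clinical data: severe hepatitis, meaning potentially life-threatening liver failure or clinically observed cases, the value counts how many indexed literature references report it.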
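Wherever Hepatotoxicity (steatosis) is given: steatosis confirmed by histopathology, value is the count of indexed references.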

| Molecule | Hepatotoxicity (cirrhosis) [1] | Hepatotoxicity (moderate) [2] | Hepatotoxicity (successful reintroduction) [3] | Hepatotoxicity (malignant tumour) [4] | Hepatotoxicity (moderate) [5] [%] | Hepatotoxicity (chronic liver disease) [6] | Hepatotoxicity (choleostasis) [7] | Hepatotoxicity (association with vascular disease) [8] | Hepatotoxicity (benign tumour) [9] | Hepatotoxicity (acute) [10] [%] | Hepatotoxicity (granulomatous hepatitis) [11] | Hepatotoxicity (acute) [12] | Hepatotoxicity (severe hepatitis) [13] | Hepatotoxicity (cytolytic) [14] | Hepatotoxicity (time to onset) [15] | Hepatotoxicity (steatosis) [16] | further results |
| --- | --- | --- | --- | --- | --- | --- | --- | --- | --- | --- | --- | --- | --- | --- | --- | --- | --- |
| C[C@@H]1O[C@@H]1P(=O)(O)O [FOSFOMYCIN] | 0 | 8 | yes | 0 | 23.8 | 0 | 0 | 0 | 0 | 0 | 0 | 1 | 0 | 1 | 3 days - 4 days | 0 | – |
| Nc1cc(N2CCCCC2)nc(N)[n+]1[O-] [MINOXIDIL] | 0 | 5 | yes | 0 | 4.3 | 0 | 0 | 0 | 0 | 0 | 0 | 0 | 0 | 0 | 3 days - 1 year | 0 | – |
| Cc1c(OCC(F)(F)F)ccnc1C[S+]([O-])c1nc2ccccc2[nH]1 (centres undefined) [LANSOPRAZOLE] | 0 | 7 | yes | 0 | 10.5 | 0 | 1 | 0 | 0 | 0 | 0 | 4 | 1 | 3 | 13 days - 5 weeks | 0 | – |
| INSULIN HUMAN | 0 | 5 | yes | 0 | 0 | 0 | 0 | 0 | 0 | 0 | 0 | 1 | 0 | 1 | 6 days - 1 month | 0 | – |
| NCCS [CYSTEAMINE] | 0 | 0 | yes | 0 | 0 | 0 | 0 | 1 | 0 | 0 | 0 | 1 | 0 | 1 | 2 weeks - 2 years | 0 | – |
| CC(=O)O[C@H]1CC[C@H]2[C@@H]3CC[C@H]4CC(=O)C=C(C)[C@]4(C)[C@H]3CC[C@]12C [METHENOLONE ACETATE] | 0 | 1 | yes | 1 | 0 | 0 | 0 | 0 | 1 | 0 | 0 | 5 | 0 | 0 | 1 month - 15 years | 0 | – |
| Cc1nccn1CC1CCc2c(c3ccccc3n2C)C1=O (centres undefined) [ONDANSETRON] | 0 | 23 | yes | 0 | 33 | 0 | 0 | 0 | 0 | 0 | 0 | 1 | 0 | 0 | 8 days - 9 days | 0 | – |
| NS(=O)(=O)c1cc2c(cc1Cl)NCNS2(=O)=O [HYDROCHLOROTHIAZIDE] | 0 | 2 | yes | 0 | 2.4 | 0 | 1 | 0 | 0 | 0 | 0 | 4 | 1 | 3 | 17 days - 14 months | 0 | – |
| N[C@@H](C(=O)N[C@@H]1C(=O)N2C(C(=O)O)=C(Cl)CC[C@H]12)c1ccccc1 [LORACARBEF ANHYDROUS] | 0 | 19 | yes | 0 | 15 | 0 | 1 | 0 | 0 | 0 | 0 | 1 | 0 | 1 | 1 week - 6 weeks | 0 | – |
| CC(NCCc1ccc(O)cc1)C(O)c1ccc(O)cc1 (centres undefined) [RITODRINE] | 0 | 6 | yes | 0 | 40 | 0 | 1 | 0 | 0 | 0.9 | 0 | 6 | 0 | 6 | 4 days - 9 weeks | 0 | – |
| CN(C)C(=N)N=C(N)N [METFORMIN] | 0 | 1 | yes | 0 | – | 0 | – | 0 | 0 | – | – | 10 | – | – | 1 week - 17 months | 0 | Hepatotoxicity (moderate) ([5]; Liver): 0%; Hepatotoxicity (choleostasis) ([7]; Liver): 6; Hepatotoxicity (acute) ([10]; Liver): 0%; Hepatotoxicity (granulomatous hepatitis) ([11]; Liver): 0; Hepatotoxicity (severe hepatitis) ([13]; Liver): 0; Hepatotoxicity (cytolytic) ([14]; Liver): 3 |
| C[C@]12C/C(=C/O)C(=O)C[C@@H]1CC[C@@H]1[C@@H]2CC[C@@]2(C)[C@H]1CC[C@]2(C)O [OXYMETHOLONE] | 0 | 2 | yes | 14 | 50 | 0 | 3 | 12 | 11 | 52.8 | 0 | 10 | 2 | 1 | 11 days - 15 years | 0 | – |
| CC(=O)Oc1ccc(C(=C2CCCCC2)c2ccc(OC(C)=O)cc2)cc1 [CYCLOFENIL] | 0 | 8 | yes | 0 | 55.6 | 0 | 2 | 1 | 0 | 1.3 | 1 | 5 | 0 | 3 | 1 month - 5 months | 0 | – |
| CCCN(CCC)S(=O)(=O)c1ccc(C(=O)O)cc1 [PROBENECID] | 0 | 0 | yes | 0 | 0 | 0 | 0 | 0 | 0 | 0 | 1 | 1 | 1 | 1 | 2 years | 0 | – |
